Test results as given in patent US20190307729A1, “ANTIMICROBIAL COMPOUNDS AND METHODS FOR USE THEREOF” (VERSITECH LIMITED, priority 2016, published 2019).

Test system: B. cepacia
Assay: Pigment formation (virulence suppression)
Type: cell-based, Burkholderia cepacia

O=C(O)CN1C(=O)C(=Cc2ccc(OCc3ccc(Cl)cc3)cc2)SC1=S [Compound 82]
pigment formation: repressing the pigment formation
